The values below are quoted from earlier work in US6346634B1, “Chemical compound containing a superoxide scavenger and an organic nitrate or nitrite moiety” (Teijin Limited, priority 1999, dated 2002).

Sequence of XO (P47989 whole entry): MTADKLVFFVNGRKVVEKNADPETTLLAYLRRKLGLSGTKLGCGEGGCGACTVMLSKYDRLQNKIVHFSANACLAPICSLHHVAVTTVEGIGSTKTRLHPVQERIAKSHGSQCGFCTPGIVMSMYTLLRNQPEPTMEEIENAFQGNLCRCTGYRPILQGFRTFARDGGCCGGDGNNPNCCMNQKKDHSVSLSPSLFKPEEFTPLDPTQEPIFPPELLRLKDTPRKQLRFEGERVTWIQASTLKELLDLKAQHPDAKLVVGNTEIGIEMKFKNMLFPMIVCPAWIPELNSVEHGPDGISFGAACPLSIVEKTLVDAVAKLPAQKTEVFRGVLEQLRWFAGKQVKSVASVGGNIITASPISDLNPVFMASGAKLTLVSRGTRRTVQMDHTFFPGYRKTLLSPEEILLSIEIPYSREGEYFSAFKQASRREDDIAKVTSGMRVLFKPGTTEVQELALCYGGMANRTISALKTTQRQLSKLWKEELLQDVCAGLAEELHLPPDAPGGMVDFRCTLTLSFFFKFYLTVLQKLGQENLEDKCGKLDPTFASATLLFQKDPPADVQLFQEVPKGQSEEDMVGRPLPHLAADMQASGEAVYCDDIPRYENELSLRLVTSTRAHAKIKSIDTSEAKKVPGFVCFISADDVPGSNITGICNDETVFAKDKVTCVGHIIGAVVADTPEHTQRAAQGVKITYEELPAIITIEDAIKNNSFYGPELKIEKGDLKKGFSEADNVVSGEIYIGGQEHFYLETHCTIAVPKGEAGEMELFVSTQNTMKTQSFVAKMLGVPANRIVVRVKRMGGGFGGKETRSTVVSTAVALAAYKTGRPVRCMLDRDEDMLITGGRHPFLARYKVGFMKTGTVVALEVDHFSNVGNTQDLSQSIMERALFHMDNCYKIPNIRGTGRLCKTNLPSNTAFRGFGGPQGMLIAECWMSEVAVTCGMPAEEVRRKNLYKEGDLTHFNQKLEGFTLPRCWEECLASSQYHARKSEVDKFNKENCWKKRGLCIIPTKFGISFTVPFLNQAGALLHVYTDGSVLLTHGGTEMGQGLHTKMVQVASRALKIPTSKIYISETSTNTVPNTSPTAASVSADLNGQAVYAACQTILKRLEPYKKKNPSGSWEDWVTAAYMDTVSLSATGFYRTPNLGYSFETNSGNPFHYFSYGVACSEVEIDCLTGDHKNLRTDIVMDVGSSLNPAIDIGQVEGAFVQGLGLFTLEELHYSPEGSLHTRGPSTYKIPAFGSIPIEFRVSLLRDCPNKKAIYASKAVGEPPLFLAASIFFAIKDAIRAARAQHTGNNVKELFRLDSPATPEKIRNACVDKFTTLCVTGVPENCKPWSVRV

This data set addresses XO (Homo sapiens, UniProt P47989). The note with it: inhibition of superoxide-generating NADH oxidase activity.
In the case of `Nc1c(-c2cccc(C(F)(F)F)c2)nsc1C(=O)O` [Amfiutizole], the “NADH-oxidizing activity of XO” value was “not suppressible”. For the molecule `COc1cc(-c2cnn3c(=O)nc[n-]c23)ccc1[S+]([O-])c1ccccc1.[Na+]` (centres unmarked) [BOF-4272], the “NADH-oxidizing activity of XO” value is reported as “not suppressible”.

Take `Oc1ncnc2[nH]ncc12` [allopurinol]: the “NADH-oxidizing activity of XO” value is “not suppressible”. Take `c1ccc2c(c1)[I+]c1ccccc1-2` [diphenyleneiodonium]: the “NADH-oxidizing activity of XO” value is on record as “blocked”. Turning to `O=c1[nH]c(=O)c2c[nH]nc2[nH]1` [oxypurinol], the “NADH-oxidizing activity of XO” value is recorded as “not suppressible”.
